Results on one compound are retold here after ChEMBL document CHEMBL4304811, “Development of a Water-Soluble Indolylmaleimide Derivative IM-93 Showing Dual Inhibition of Ferroptosis and NETosis” (ACS Med Chem Lett, 2019).

In assay [1] the target is CDK4/Cyclin D3 (Homo sapiens) (UniProt P11802+P30281). The assay can be described thus: Binding affinity to wild-type human full length CDK4/cyclinD3 (M1 to E303 residues) expressed in mammalian expression system assessed as residual binding level at 10 uM by Kinomescan method relative to control.
The target in assay [2] is Serine/threonine-protein kinase PLK3 (Homo sapiens) (UniProt Q9H4B4). The assay can be described thus: Binding affinity to wild-type human partial length PLK3 (A42 to L334 residues) expressed in mammalian expression system assessed as residual binding level at 10 uM by Kinomescan method relative to control.
For assay [3], the target named is Mitogen-activated protein kinase 9 (Homo sapiens) (UniProt P45984). The assay can be described thus: Binding affinity to wild-type human full length JNK2 (M1 to Q382 residues) expressed in mammalian expression system assessed as residual binding level at 10 uM by Kinomescan method relative to control.
Assay [4] addresses Mitogen-activated protein kinase kinase kinase kinase 4 (Homo sapiens) (UniProt O95819). As to the kind of experiment: Binding affinity to wild-type human partial length MAP4K4 (M1 to R310 residues) expressed in bacterial expression system assessed as residual binding level at 10 uM by Kinomescan method relative to control.
The target in assay [5] is Cyclin-G-associated kinase (Homo sapiens) (UniProt O14976). The assay can be described thus: Binding affinity to wild-type human partial length GAK (G13 to Y338 residues) expressed in bacterial expression system assessed as residual binding level at 10 uM by Kinomescan method relative to control.
For assay [6], the target named is Serine/threonine-protein kinase 32A (Homo sapiens) (UniProt Q8WU08). As to the kind of experiment: Binding affinity to wild-type human full length YANK1 (M1 to L396 residues) expressed in mammalian expression system assessed as residual binding level at 10 uM by Kinomescan method relative to control.
For assay [7], the target named is 5'-AMP-activated protein kinase catalytic subunit alpha-2 (Homo sapiens) (UniProt P54646). As to the kind of experiment: Binding affinity to wild-type human partial length AMPK alpha2 (M1 to E306 residues) expressed in bacterial expression system assessed as residual binding level at 10 uM by Kinomescan method relative to control.
The subject of assay [8] is Tyrosine-protein kinase ABL1 (Homo sapiens), P00519 [Q252H]. As to the kind of experiment: Binding affinity to human non-phosphorylated ABL1 Q252H mutant (S229 to K512 residues) expressed in mammalian expression system assessed as residual binding level at 10 uM by Kinomescan method relative to control.
For assay [9], the target named is Serine/threonine-protein kinase ULK2 (Homo sapiens) (UniProt Q8IYT8). As to the kind of experiment: Binding affinity to wild-type human partial length ULK2 (M1 to S301 residues) expressed in mammalian expression system assessed as residual binding level at 10 uM by Kinomescan method relative to control.
Assay [10] addresses RAF proto-oncogene serine/threonine-protein kinase (Homo sapiens) (UniProt P04049). As to the kind of experiment: Binding affinity to wild-type human partial length RAF1 (I330 to T640 residues) expressed in bacterial expression system assessed as residual binding level at 10 uM by Kinomescan method relative to control.
Assay [11] deals with Serine/threonine-protein kinase BRSK2 (Homo sapiens) (UniProt Q8IWQ3). As to the kind of experiment: Binding affinity to wild-type human full length BRSK2 (M1 to L674 residues) expressed in bacterial expression system assessed as residual binding level at 10 uM by Kinomescan method relative to control.
Assay [12] has as its target Calcium/calmodulin-dependent protein kinase type II subunit delta (Homo sapiens) (UniProt Q13557). As to the kind of experiment: Binding affinity to wild-type human partial length CAMK2D (M1 to E329 residues) expressed in bacterial expression system assessed as residual binding level at 10 uM by Kinomescan method relative to control.
In assay [13] the test system is Epidermal growth factor receptor (Homo sapiens), P00533 [UNDEFINED MUTATION]. The assay can be described thus: Binding affinity to human partial length EGFR L747-T751del/Sins mutant expressed in bacterial expression system assessed as residual binding level at 10 uM by Kinomescan method relative to control.
In assay [14] the target is Cyclin-dependent kinase-like 3 (Homo sapiens) (UniProt Q8IVW4). The assay can be described thus: Binding affinity to wild-type human partial length CDKL3 (M1 to D327 residues) expressed in bacterial expression system assessed as residual binding level at 10 uM by Kinomescan method relative to control.
In assay [15] the target is Casein kinase I isoform gamma-1 (Homo sapiens) (UniProt Q9HCP0). As to the kind of experiment: Binding affinity to wild-type human partial length CSNK1G1 (T15 to S353 residues) expressed in bacterial expression system assessed as residual binding level at 10 uM by Kinomescan method relative to control.
Assay [16] has as its target Serine/threonine-protein kinase WNK3 (Homo sapiens) (UniProt Q9BYP7). As to the kind of experiment: Binding affinity to wild-type human partial length WNK3 (M1 to D434 residues) expressed in mammalian expression system assessed as residual binding level at 10 uM by Kinomescan method relative to control.
Assay [17] addresses Tyrosine-protein kinase receptor TYRO3 (Homo sapiens) (UniProt Q06418). As to the kind of experiment: Binding affinity to wild-type human partial length TYRO3 (S497 to T814 residues) expressed in bacterial expression system assessed as residual binding level at 10 uM by Kinomescan method relative to control.
Assay [18] relates to Phosphatidylinositol 4,5-bisphosphate 3-kinase catalytic subunit alpha isoform (Homo sapiens), P42336 [H1047Y]. As to the kind of experiment: Binding affinity to human partial length PIK3CA H1047Y mutant (R108 to N1068 residues) expressed in mammalian expression system assessed as residual binding level at 10 uM by Kinomescan method relative to control.
Assay [19] has as its target Serine/threonine-protein kinase PAK 5 (Homo sapiens) (UniProt Q9P286). The assay can be described thus: Binding affinity to wild-type human partial length PAK7 (Y400 to H719 residues) expressed in bacterial expression system assessed as residual binding level at 10 uM by Kinomescan method relative to control.
For assay [20], the system named is Epidermal growth factor receptor (Homo sapiens), P00533 [L861Q]. As to the kind of experiment: Binding affinity to human partial length EGFR L861Q mutant (R669 to V1011 residues) expressed in bacterial expression system assessed as residual binding level at 10 uM by Kinomescan method relative to control.
Assay [21] has as its target Dual specificity protein kinase TTK (Homo sapiens) (UniProt P33981). The assay can be described thus: Binding affinity to wild-type human partial length TTK (N505 to V798 residues) expressed in bacterial expression system assessed as residual binding level at 10 uM by Kinomescan method relative to control.
In assay [22] the test system is Phosphatidylinositol 4,5-bisphosphate 3-kinase catalytic subunit alpha isoform (Homo sapiens), P42336 [M1043I]. As to the kind of experiment: Binding affinity to human partial length PIK3CA M1043I mutant (R108 to N1068 residues) expressed in mammalian expression system assessed as residual binding level at 10 uM by Kinomescan method relative to control.
The target of assay [23] is Hormonally up-regulated neu tumor-associated kinase (Homo sapiens) (UniProt P57058). The assay can be described thus: Binding affinity to wild-type human partial length HUNK (A31 to K354 residues) expressed in bacterial expression system assessed as residual binding level at 10 uM by Kinomescan method relative to control.
Assay [24] deals with Mitogen-activated protein kinase kinase kinase 13 (Homo sapiens) (UniProt O43283). As to the kind of experiment: Binding affinity to wild-type human full length LZK (M1 to W966 residues) expressed in mammalian expression system assessed as residual binding level at 10 uM by Kinomescan method relative to control.

Sequence of RAF proto-oncogene serine/threonine-protein kinase (Homo sapiens) (P04049 whole entry, the tested form may be a part): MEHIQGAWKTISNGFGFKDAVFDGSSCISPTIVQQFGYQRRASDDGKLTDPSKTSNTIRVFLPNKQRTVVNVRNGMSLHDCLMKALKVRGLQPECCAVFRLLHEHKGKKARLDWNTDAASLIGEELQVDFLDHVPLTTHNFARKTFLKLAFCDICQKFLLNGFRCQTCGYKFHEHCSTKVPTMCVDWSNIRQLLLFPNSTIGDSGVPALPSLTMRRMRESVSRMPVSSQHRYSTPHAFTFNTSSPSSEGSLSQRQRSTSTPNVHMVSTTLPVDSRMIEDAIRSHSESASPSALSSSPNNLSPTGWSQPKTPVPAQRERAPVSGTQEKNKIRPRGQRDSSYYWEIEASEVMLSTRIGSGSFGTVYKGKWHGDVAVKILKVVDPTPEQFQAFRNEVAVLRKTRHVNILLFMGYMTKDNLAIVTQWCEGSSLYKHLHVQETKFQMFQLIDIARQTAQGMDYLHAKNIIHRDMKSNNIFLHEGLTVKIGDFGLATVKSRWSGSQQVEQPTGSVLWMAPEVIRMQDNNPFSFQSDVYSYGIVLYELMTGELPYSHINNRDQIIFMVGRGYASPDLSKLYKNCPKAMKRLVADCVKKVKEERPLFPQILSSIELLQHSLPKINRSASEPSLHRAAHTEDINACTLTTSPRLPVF
Sequence of 5'-AMP-activated protein kinase catalytic subunit alpha-2 (Homo sapiens) (P54646 whole entry, looked up, the tested form may be a part): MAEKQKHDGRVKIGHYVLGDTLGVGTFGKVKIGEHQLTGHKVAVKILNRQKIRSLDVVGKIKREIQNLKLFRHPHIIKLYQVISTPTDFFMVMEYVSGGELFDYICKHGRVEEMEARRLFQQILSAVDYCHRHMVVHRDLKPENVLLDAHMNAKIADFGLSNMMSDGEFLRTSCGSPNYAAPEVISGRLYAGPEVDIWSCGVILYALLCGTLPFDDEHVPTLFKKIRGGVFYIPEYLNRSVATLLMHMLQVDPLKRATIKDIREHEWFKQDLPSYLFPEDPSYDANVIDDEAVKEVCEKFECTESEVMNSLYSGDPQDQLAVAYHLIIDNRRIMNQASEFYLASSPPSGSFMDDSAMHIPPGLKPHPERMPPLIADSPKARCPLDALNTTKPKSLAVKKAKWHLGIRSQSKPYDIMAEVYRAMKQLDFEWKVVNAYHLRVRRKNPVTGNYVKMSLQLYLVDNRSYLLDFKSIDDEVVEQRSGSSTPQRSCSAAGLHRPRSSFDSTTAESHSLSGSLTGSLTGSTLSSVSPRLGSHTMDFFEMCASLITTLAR
Sequence of Dual specificity protein kinase TTK (Homo sapiens) (P33981 whole entry, the tested form may be a part, canonical isoform): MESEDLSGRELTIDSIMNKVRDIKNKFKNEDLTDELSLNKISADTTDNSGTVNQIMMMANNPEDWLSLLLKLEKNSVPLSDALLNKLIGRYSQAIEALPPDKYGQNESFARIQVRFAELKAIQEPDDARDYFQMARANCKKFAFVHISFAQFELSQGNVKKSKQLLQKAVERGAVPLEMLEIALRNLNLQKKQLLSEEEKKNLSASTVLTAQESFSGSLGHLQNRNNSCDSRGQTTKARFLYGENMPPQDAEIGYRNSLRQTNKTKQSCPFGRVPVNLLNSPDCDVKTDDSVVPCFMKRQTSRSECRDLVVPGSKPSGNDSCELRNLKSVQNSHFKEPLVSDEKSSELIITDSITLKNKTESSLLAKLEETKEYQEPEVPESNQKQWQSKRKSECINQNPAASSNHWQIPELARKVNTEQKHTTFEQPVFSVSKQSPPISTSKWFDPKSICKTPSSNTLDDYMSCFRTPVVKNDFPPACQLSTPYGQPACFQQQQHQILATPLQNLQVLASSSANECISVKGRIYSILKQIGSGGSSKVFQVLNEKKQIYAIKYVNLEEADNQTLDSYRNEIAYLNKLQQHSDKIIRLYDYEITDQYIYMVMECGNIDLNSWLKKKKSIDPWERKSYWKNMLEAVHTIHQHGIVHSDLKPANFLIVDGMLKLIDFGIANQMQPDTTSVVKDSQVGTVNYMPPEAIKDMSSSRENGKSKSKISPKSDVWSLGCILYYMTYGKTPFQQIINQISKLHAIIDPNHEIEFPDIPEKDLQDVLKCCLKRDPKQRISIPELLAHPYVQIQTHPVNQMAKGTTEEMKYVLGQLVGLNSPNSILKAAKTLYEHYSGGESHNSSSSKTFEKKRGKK
Sequence of Serine/threonine-protein kinase PAK 5 (Homo sapiens) (Q9P286 whole entry, looked up, the tested form may be a part): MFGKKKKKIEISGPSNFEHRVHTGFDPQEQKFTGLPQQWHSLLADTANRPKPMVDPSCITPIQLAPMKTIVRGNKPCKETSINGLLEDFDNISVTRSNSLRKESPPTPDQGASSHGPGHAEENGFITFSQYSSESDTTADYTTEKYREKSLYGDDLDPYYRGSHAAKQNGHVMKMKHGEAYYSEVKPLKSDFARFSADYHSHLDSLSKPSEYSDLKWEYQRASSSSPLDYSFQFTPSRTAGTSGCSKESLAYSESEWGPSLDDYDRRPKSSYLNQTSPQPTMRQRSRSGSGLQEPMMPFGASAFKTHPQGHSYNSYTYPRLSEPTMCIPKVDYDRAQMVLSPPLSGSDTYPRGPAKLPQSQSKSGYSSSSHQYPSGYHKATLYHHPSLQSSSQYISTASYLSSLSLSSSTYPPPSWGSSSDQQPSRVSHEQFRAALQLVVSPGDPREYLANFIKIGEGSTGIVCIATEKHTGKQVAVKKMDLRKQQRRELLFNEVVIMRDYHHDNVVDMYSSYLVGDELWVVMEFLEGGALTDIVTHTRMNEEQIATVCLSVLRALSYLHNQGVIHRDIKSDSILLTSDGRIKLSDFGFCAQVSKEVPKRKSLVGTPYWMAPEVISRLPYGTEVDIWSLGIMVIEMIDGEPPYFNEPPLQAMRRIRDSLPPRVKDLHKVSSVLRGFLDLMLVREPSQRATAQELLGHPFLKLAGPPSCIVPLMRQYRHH
Sequence of Mitogen-activated protein kinase kinase kinase kinase 4 (Homo sapiens) (O95819 2-1239 limits assumed): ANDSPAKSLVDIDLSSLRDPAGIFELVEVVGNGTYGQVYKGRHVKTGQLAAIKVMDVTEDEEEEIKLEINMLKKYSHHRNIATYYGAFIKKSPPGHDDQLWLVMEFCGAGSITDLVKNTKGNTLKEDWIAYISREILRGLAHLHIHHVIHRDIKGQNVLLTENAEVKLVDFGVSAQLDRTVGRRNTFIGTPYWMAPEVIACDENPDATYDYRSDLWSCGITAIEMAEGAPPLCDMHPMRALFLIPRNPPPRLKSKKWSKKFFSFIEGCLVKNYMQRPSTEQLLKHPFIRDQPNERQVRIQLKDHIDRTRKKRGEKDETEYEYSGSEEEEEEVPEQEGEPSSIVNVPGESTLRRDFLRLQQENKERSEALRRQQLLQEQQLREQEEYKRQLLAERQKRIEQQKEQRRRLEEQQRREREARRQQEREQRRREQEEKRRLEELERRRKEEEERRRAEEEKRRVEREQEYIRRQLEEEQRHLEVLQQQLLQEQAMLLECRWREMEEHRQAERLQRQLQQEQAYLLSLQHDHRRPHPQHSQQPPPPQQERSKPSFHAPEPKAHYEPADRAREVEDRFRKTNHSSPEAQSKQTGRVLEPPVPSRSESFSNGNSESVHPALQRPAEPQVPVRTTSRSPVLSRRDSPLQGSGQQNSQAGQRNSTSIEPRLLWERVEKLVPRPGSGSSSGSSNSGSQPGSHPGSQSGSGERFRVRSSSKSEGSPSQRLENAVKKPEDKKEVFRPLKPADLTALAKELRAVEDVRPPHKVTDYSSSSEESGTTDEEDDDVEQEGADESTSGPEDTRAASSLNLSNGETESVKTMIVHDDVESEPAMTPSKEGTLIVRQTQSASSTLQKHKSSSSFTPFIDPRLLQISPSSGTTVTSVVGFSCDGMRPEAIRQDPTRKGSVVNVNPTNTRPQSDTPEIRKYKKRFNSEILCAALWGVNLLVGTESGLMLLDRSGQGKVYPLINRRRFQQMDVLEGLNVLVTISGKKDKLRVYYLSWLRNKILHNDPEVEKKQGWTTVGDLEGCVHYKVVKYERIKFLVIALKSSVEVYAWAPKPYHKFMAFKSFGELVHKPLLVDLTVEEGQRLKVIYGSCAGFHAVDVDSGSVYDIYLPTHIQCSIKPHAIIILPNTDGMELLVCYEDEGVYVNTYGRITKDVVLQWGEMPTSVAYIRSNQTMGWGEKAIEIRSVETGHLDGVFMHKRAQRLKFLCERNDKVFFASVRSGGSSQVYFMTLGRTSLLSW
Sequence of Phosphatidylinositol 4,5-bisphosphate 3-kinase catalytic subunit alpha isoform (Homo sapiens), P42336 [H1047Y] (P42336 whole entry H1047Y, the tested form may be a part, canonical isoform): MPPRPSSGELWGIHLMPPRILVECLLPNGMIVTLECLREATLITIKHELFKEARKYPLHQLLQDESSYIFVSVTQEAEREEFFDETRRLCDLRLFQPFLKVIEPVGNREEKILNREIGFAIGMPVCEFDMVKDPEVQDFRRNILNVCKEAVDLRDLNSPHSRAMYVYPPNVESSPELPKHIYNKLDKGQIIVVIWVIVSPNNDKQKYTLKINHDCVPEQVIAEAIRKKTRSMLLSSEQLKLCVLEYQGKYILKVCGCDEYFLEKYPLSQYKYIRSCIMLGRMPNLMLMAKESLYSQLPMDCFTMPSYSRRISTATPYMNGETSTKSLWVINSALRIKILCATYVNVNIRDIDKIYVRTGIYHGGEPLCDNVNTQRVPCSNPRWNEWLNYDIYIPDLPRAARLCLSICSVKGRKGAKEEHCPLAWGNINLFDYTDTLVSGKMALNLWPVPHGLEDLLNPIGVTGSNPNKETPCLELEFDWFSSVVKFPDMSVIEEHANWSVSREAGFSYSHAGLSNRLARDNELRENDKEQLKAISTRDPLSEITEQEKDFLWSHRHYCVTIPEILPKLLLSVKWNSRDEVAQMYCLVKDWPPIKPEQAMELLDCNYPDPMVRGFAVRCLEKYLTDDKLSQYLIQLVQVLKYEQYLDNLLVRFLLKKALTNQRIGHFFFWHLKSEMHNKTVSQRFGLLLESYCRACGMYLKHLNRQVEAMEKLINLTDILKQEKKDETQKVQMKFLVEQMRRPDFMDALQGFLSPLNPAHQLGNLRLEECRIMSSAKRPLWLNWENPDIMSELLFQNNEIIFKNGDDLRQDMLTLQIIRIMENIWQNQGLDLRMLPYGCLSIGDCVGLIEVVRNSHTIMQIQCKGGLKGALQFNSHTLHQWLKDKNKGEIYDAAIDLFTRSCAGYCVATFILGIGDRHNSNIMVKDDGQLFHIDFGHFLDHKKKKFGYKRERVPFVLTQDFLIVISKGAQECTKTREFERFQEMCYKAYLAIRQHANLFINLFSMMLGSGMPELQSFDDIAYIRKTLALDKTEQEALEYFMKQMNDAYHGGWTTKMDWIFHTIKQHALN

Turning to `CC(C)N1C(=O)C(NCCCN(C)C)=C(c2cn(C)c3ccccc23)C1=O.Cl`, the Activity in assay [1] was 93%; in [2] it was 100%; in assay [3] it was 80%; in assay [4] it was 95%; in assay [5], 94%; in assay [6] it was 67%. For the same compound, the Activity in [7] is 89%; in [8] it was 100%; in assay [9] it was 80%; in [10], 100%; in assay [11], 86%; in assay [12], 98%. Moreover, the Activity turned out to be 94% in assay [13]; 100% in assay [14]; 89% in assay [15]; 78% in assay [16]; 100% in assay [17]; 94% in assay [18]. Also, the Activity amounted to 100% in [19]; 80% in assay [20]; 100% in assay [21]; 67% in assay [22]; 100% in assay [23]; 100% in assay [24].
